{"source": "patent US20150374718A1", "about": "“Zhankuic Acid A and Analogs thereof and Their Use as an Anti-Inflammatory Agent” (National Cheng Kung University, priority 2014, published 2015)", "key": {"[1]": {"test_system": "S. choleraesuis", "assay": "S. choleraesuis growth in LB broth (absorbance at 600 nm)", "conditions": "24 or 48 h, various concentrations, listed as ZAA", "quoted_text": "S. choleraesuis was cultured in LB broth for 24 or 48 h in the presence of various concentrations of ZAA or ampicillin that served as a positive control. Bacterial growth was assessed by measurement of the absorbance at 600 nm and is expressed as means±SD of at least three independent experiments."}, "[2]": {"test_system": "murine peritoneal macrophages", "assay": "Cell viability by MTS and SRB assays", "type": "cell-based", "conditions": "up to 30 μM for 72 h; resident or LPS-activated macrophages; listed as ZAA", "protocol": "FIG. 6. ZAA is not cytotoxic to murine peritoneal macrophages. (A) Cells were incubated with various concentrations of ZAA for 72 h. Cell viability was determined by colorimetric tetrazolium (MTS) and sulphorhodamine B (SRB) assays. The absorbance was measured at 490 and 590 nm for MTS and SRB assays, respectively. […] Cell viability was determined by the SRB assay.\nWe first investigated the anti-inflammatory properties of ZAA purified from T. camphoratus. During inflammation, large amounts of pro-inflammatory mediators, NO, and prostaglandin E2 (PGE2) are generated by iNOS and COX2."}, "[3]": {"test_system": "NF-κB, MAPK, and Akt signaling pathways", "assay": "Immunoblot of NF-κB, MAPK and Akt signaling in LPS-stimulated RAW264.7 cells", "type": "cell-based, murine", "conditions": "ZAA 1 h, then LPS 30 min", "protocol": "(§1) FIG. 1. ZAA inhibits the production of inflammation-related molecules in LPS- and IFN-γ-stimulated murine macrophages. […] Total cell lysates were subjected to immunoblotting for detecting COX2 and iNOS. Relative expression levels of COX2 and iNOS protein were quantified by densitometric analysis with ImageJ software and normalized according to the β-actin reference band. […] The presence of nitrite in the culture medium was analyzed by the Griess assay and used as an indication of NO levels (n=4; *p<0.05 and ***p<0.001 vs. LPS- or IFN-γ-induced cells). (C) Raw264.7 cells were cotransfected with pNFKB-Luc and pβ-actin-LacZ plasmids. […] Total cell lysates were harvested, and their luciferase activities were determined and normalized on the basis of β-galactosidase activities. […] Numbers below the blots in D and those shown in the table below the blots in E represent the relative expression levels quantified by densitometric analysis with ImageJ software and normalized according to the β-actin reference bands. […]\nCell lysates were analyzed by immunoblotting with primary antibodies against pIKKα/β, IkBα, pNF-κBp65, pERK, ERK, pJNK, JNK, pAkt, Akt, pp38, p38, and β-actin, followed by appropriate secondary antibodies Immunoreactive protein bands were detected using an enhanced chemiluminescence (ECL) kit (Pierce Biotechnology, Rockford, Ill.). […]"}, "[4]": {"test_system": "S. choleraesuis", "assay": "S. choleraesuis-induced diarrhea model in mice", "quoted_text": "(A and B) C57BL/6 mice that had been pretreated intraperitoneally with ZAA (2 or 10 mg/kg) or the vehicle for 30 min were orally administered with kanamycin-resistant S. choleraesuis (2×10^9 CFU/mouse). Diarrhea was scored after 2 days on a 0-3 scale (0=normal pellets, 1=slightly loose feces, 2=loose feces, and 3=watery diarrhea) (A). Body weight was recorded every 2 days for 2 weeks (n=9-12; **p<0.01 and ***p<0.001) (B). (C) Fecal samples were collected at 24-h intervals until 96 h after S. choleraesuis infection and assessed for viable bacterial CFU counts (n=10; **p<0.01 and ***p<0.001).\nThe pEGFP-N1 (ΔEGFP)-transformed S. choleraesuis (2×10^9 CFU/mouse) was orally administered to mice with or without oral pretreatment of ZAA (2 or 10 mg/kg). […] Fecal samples were collected at 24-h intervals until 96 h after S. choleraesuis infection. S. choleraesuis in the feces was quantified by plating serial dilutions of fecal samples on kanamycin-containing agar plates and counting colonies after overnight incubation at 37° C. Mice were monitored daily for symptoms of diarrhea and loss of body weight. Diarrhea was defined according to a diarrhea score of 0-3 (0=normal pellets, 1=slightly loose feces, 2=loose feces, and 3=watery diarrhea) as previously described (21)."}, "[5]": {"test_system": "COX2 and iNOS", "assay": "Immunoblot of COX2 and iNOS in LPS-stimulated peritoneal macrophages", "type": "cell-based, murine", "conditions": "ZAA 1 h, then LPS 0.5 μg/mL 24 h; dose-dependent", "protocol": "as §1, with “activities. Values are means±SD (n=4; *p<0.05 and **p<0.01 vs. LPS-stimulated cells).” for “activities.”\nC57BL/6 mice were injected intraperitoneally with 3% thioglycollate, and their peritoneal macrophages were collected 72 h later. […] The presence of nitrite (a metabolite of NO) in the culture medium was analyzed by the Griess assay (Sigma-Aldrich), as previously described (16)."}, "[6]": {"test_system": "S. choleraesuis-induced TNF-α and IL-6 production", "assay": "ELISA of cytokines in S. choleraesuis-treated RAW264.7 cells", "type": "cell-based, murine", "conditions": "ZAA 1 h, 2×10^3 CFU/well"}, "[7]": {"test_system": "LPS-induced lethality", "assay": "LPS-induced sepsis model (lethality)", "type": "in vivo", "conditions": "C3H/HeN mice; ZAA 2 or 10 mg/kg i.p., LPS 20 mg/kg i.p.", "protocol": "The mice were monitored every 2-4 h until all C3H/HeN mice in the ZAA-untreated and LPS-treated group expired."}, "[8]": {"target": "T1, recombinant human MD-2 (Homo sapiens, UniProt Q9Y6Y9)", "T1 construct": "purchased R&D", "T1 sequence (Q9Y6Y9 19-160)": "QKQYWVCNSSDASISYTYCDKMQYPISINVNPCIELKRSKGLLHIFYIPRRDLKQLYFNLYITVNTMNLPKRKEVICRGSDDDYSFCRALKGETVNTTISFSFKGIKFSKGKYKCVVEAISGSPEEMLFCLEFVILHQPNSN", "assay": "Native PAGE binding analysis with anti-MD-2 antibodies", "conditions": "MD-2 0.15 μg, 3 h at 37° C.", "description": "FIG. 2. ZAA interacts with the hydrophobic binding pocket of MD-2. […] The amino acids G1y110-Asn158 shown in magenta, which reside within the immunogenic peptide fragment of MD-2 amino acids 110-160, are around the ZAA-binding site in the ribbon model of MD-2. Gly110 and Asn158 are indicated by arrows. (B) Interactions involved in the binding of ZAA to the hydrophobic amino acid residues within the MD-2 binding pocket are shown. […] Similar results were obtained in three independent experiments.\nSamples were subjected to native PAGE, and the levels of TLR4-associated or free MD-2 were detected by immunoblotting with two anti-MD-2 antibodies, rabbit polyclonal antibody against MD-2 amino acids 110-160 (abcam, Cambridge, Mass.) and mouse monoclonal antibody against MD-2 amino acids 2-160 (abcam). Signals were detected via ECL."}, "[9]": {"test_system": "NF-κB-mediated transactivation in Raw264.7 cells", "assay": "NF-κB luciferase reporter assay", "type": "cell-based, murine", "conditions": "ZAA 1 h, then LPS 24 h", "protocol": "as §1\nSubconfluent Raw264.7 cells cultured in 24-well plates were cotransfected with p-NFκB-Luc and pβ-actin-LacZ plasmids using the Neon Transfection System (Invitrogen, Carlsbad, Calif.) according to the manufacturer's protocol. […] Relative luciferase activity was measured as luciferase activity divided by β-galactosidase activity to normalize transfection efficiency."}, "[10]": {"test_system": "human neutrophils", "conditions": "reference (9), cited from earlier work"}}, "note": "“Also recorded” adds a separate entry of the source.", "data": [{"compound": "C=C(CC[C@@H](C)[C@H]1CC[C@H]2C3=C(C(=O)C[C@]12C)[C@@]1(C)CCC(=O)[C@@H](C)[C@@H]1CC3=O)C(C)C(=O)O", "note": "(stereo partly shown) [No. 1, Zhankuic acid A]", "values": [{"measurement": "direct effect on growth / replication of Salmonella", "setting": "[1]", "value": "cannot inhibit; also recorded: no direct inhibitory effects"}, {"measurement": "cytotoxic effects (MTS and SRB)", "setting": "[2]", "value": "did not exert any cytotoxic effects"}, {"measurement": "LPS-induced phosphorylation of ERK, JNK, p38, and Akt", "setting": "[3]", "value": "inhibited"}, {"measurement": "LPS-stimulated NF-κBp65 phosphorylation", "setting": "[3]", "value": "significantly prevented"}, {"measurement": "fecal bacterial level", "setting": "[4]; 96 h after bacterial infection, ZAA 10 mg/kg", "value": "undetectable"}, {"measurement": "body weight loss", "setting": "[4]; C57BL/6 mice, ZAA 10 mg/kg", "value": "dramatically attenuated"}, {"measurement": "time to return to normal body weight", "setting": "[4]; C57BL/6 mice, ZAA 10 mg/kg", "value": "≤ 2", "unit": "weeks"}, {"measurement": "fecal bacterial load", "setting": "[4]; C57BL/6 mice, ZAA 2 or 10 mg/kg, 24-96 h, dose- and time-dependent", "value": "dramatically reduced"}, {"measurement": "diarrhea score", "setting": "[4]; C57BL/6 mice, ZAA 2 or 10 mg/kg, scored after 2 days, 0-3 scale", "value": "reduced"}, {"measurement": "level of COX2 induced by LPS", "setting": "[5]", "value": "downregulated"}, {"measurement": "level of iNOS induced by LPS", "setting": "[5]", "value": "downregulated"}, {"measurement": "S. choleraesuis-induced TNF-α production", "setting": "[6]; 4 h", "value": "effectively suppressed"}, {"measurement": "S. choleraesuis-induced IL-6 production", "setting": "[6]; 6 h", "value": "effectively suppressed"}, {"measurement": "protection against LPS-induced lethality (survival)", "setting": "[7]", "value": "significantly protected"}, {"measurement": "recognition of anti-MD-2 antibodies (aa 110-160 and 2-160) to native MD-2", "setting": "[8]", "value": "reduced the recognition of both antibodies to native MD-2"}, {"measurement": "NF-κB-mediated transactivation (relative luciferase activity)", "setting": "[9]", "value": "inhibited"}, {"measurement": "ROS production", "setting": "[10]; fMLP- or PMA-activated peripheral human neutrophils", "value": "inhibits"}, {"measurement": "cytotoxicity", "setting": "[10]; human neutrophils", "value": "without exerting significant cytotoxicity"}, {"measurement": "inflammatory responses by human neutrophils", "setting": "[10]", "value": "prevent inflammatory responses"}]}]}
